Broadly, the IC50 is the concentration that gives 50% inhibition. A higher IC50 goes with lower potency. For orientation: NOAEL means the highest dose or exposure tested at which no adverse effect was seen.

The results in this text go back to publication PMC12198407, “Preclinical and first-in-human of purinostat mesylate, a novel selective HDAC I/IIb inhibitor, in relapsed/refractory multiple myeloma and lymphoma” (Signal Transduction and Targeted Therapy, 2025).

Series [1] in a line: Metabolites in dog plasma. Format: in vivo, Beagle dogs. To be noted: male and female dogs. From the text:
Four metabolites of Purinostat Mesylate were detected in plasma samples from both male and female dogs, namely M4 (MW = 636.66, unknown product), M8 (MW = 474.52, reduction product), M13 (MW = 505.54, methylation product), and M16 (MW = 475.50, hydrolysis product). The primary metabolic pathways involved hydrolysis, methylation, and reduction, with no significant gender differences observed. The parent compound, Purinostat Mesylate, accounted for more than 35% of the UV absorption peak area in the plasma samples from both male and female dogs, indicating it is one of the major components. Purinostat Mesylate is primarily metabolized in the plasma of male and female dogs through hydrolysis, methylation, and reduction pathways. A possible metabolic pathway structure diagram is shown below: […]

Series [2] can be described thus: Body weight of MM1S xenograft, DEL and r/r DLBCL PDX mice. To be noted: treatment groups of the mouse models. Format: in vivo.
Experimental: Mice received subcutaneous inoculation with 0.5 × 10^7 MM1S or RPMI-8226 cells, to establish xenograft models. […] When tumors reached 150–250 mm^3, mice were treated with various compounds. PM and panobinostat were administered intravenously three times a week at 5 mg/kg in combination therapy. […] Tumor volume (tumor volume (mm^3) = π/6 × length × width^2) and body weights were measured every two days.
Mice were weighed every two days. All data are represented as mean ± SEM.
Series [3] concerns the target T1, CYP2D6 (Homo sapiens, UniProt P10635).
T1 construct: human liver microsomal cytochrome P450 isoenzymes; from tissue; host or cells: human liver microsomes
Put plainly: CYP inhibition, human liver microsomes. Format: in vitro ADME.

The nature of series [4]: clinical. Format: in vivo, human. As for the experimental part: To analyze the pharmacokinetics (PK) of PM, serial blood samples were collected at pre-dose and at 5 minutes, 10 minutes, 20 minutes, 30 minutes, 32 minutes, 35 minutes, 45 minutes, 1 hour, 2 hours, 4 hours, 8 hours, and 12 hours post-dose on day 1. During the multiple dosing phase, blood samples were collected at pre-dose on day 15, and 5 minutes, 10 minutes, 20 minutes, 30 minutes, 32 minutes, 35 minutes, 45 minutes, 1 hour, 2 hours, 4 hours, 8 hours, and 12 hours post-dose on day 15. PM plasma concentrations were determined using ultra performance liquid chromatography (UPLC) coupled with tandem mass spectrometry (MS-MS) detection. Pharmacokinetic parameters, including Tmax, Cmax, AUC0-t, AUC0-∞, t1/2, MRT, CL, Ke, and V, were calculated using the non-compartmental analysis (NCA) method with the professional pharmacokinetic software Phoenix WinNonlin (Version 8.1). Dose proportionality was assessed in single-dose experiments, while drug accumulation was evaluated in multiple-dose experiments.

In series [5] the test system is CYP2B6. The series is described as follows: CYP induction, cryopreserved human liver cells. Format: in vitro ADME. To be noted: 0.0500, 0.500, 5.00 µM; three donors.
Series [6] deals with bone destruction. The series is described as follows: Micro-CT of femur, 5TMM model. In kind it is in vivo, C57BL/KawRij mice. To be noted: 10 mg/kg for 4 weeks. As for the experimental part: The cMYC-KRAS12V-induced plasmacytoma mouse model in BALB/c (GemPharmatech Co., Ltd., Nanjing, China) was established as previously described.[33] On day 28 or 35 post bone marrow transplantation, recipients received various treatments. The 5TMM mouse model was established as previously described.[55] The 5TGM1-luc cells were intravenously injected into 6-week-old C57BL/KawRij mice (Harlan Co. Netherlands) with 2 × 10^6 cells per mouse. After three weeks, mice were treated with vehicle or PM 10 mg/kg. Serum Ca^2+ levels were monitored weekly for three weeks after the start of administration. Kaplan-Meier survival curves were generated for each treatment group. Additionally, the 5TMM mouse model studying PM’s effects on immune response and bone destruction involved randomizing mice into vehicle and PM (10 mg/kg) groups one week after inoculation. T cell subsets were analyzed by flow cytometry 24 h after a single dose and 1 month after vehicle or PM treatment. The mice were sacrificed after 1 month of treatment, and the bone destruction was detected by Micro-CT.

The nature of series [7]: Intravenous vascular irritation test. Format: in vivo, rabbits. To be noted: 0.204 mg/mL, 10 mL/kg, 5 days. The procedure: This experiment included a blank formulation group of injectable Purinostat Mesylate and an injectable Purinostat Mesylate group, with 8 Japanese White Rabbits in each group, evenly divided by sex. The injectable Purinostat Mesylate group received an intravenous infusion of 0.204 mg/mL (the maximum intended clinical concentration) at a volume of 10 mL/kg via the right ear marginal vein. The blank formulation group received an intravenous infusion of hydroxypropyl beta-cyclodextrin at the same dose as the injectable Purinostat Mesylate group. Each rabbit in both groups also received an equal volume of 0.9% sodium chloride injection via the left ear marginal vein as a self-control. The administration was performed once daily for a total of 5 consecutive days, with the first day of administration defined as Day 1 of the experiment. During the study, the general condition of the rabbits and the injection site were monitored daily. Approximately 72 hours and 16 days after administration, 4 rabbits from each group were euthanized for gross anatomical observation of the injection site, and blood vessels and surrounding tissues from the injection site were collected for histopathological examination.

The test system of series [8] is mouse B-cell lymphoma. Put plainly: Ighmyc transgenic B-cell lymphoma model, survival. Format: in vivo, mice.
Series [9] is described as follows: Fertility, embryo and fetal developmental toxicity test. To be noted: SD, rat, in vivo, intravenous. Further details: species or system SD rats. As for the experimental part:
Male SD rats were administered intravenous injections of Purinostat Mesylate at doses of 3, 10, and 20 mg/kg every two days from 4 weeks prior to mating until the end of mating. Female SD rats received the same treatment from 2 weeks prior to mating until day 7 of pregnancy. The no observed adverse effect level (NOAEL) for males was less than 3 mg/kg, while for females it was 20 mg/kg. The NOAEL for reproductive toxicity in both male and female rats was 3 mg/kg, and the NOAEL for early embryonic development was less than 3 mg/kg.

Series [10] is described as follows: Chronic toxicity test, intravenous. Format: in vivo, Beagle dogs. The procedure: In this study, the low, medium, and high dose groups were set at 0.3, 1, and 3 mg/kg, respectively. The excipient was set at a high dose of 45 mg/kg. In the low dose group, occasional vomiting was observed; in the medium dose group, symptoms included vomiting, loose stools, and dark red stools; in the high dose group, symptoms included vomiting and dark red stools. Four dogs (4/10, 2 females and 2 males) died between days 13 and 26 of the experiment. […] The primary toxic target organs or systems included the immune system (spleen, thymus, lymph nodes), digestive system (esophagus, liver, pancreas, intestine), kidneys, heart, lungs, trachea, testes, bone marrow, and injection site. There was a dose-dependent relationship, and recovery was observed during the recovery period. The highest no serious toxicity dose (HNSTD) was determined to be 1 mg/kg.

T1 sequence (P10635 whole entry): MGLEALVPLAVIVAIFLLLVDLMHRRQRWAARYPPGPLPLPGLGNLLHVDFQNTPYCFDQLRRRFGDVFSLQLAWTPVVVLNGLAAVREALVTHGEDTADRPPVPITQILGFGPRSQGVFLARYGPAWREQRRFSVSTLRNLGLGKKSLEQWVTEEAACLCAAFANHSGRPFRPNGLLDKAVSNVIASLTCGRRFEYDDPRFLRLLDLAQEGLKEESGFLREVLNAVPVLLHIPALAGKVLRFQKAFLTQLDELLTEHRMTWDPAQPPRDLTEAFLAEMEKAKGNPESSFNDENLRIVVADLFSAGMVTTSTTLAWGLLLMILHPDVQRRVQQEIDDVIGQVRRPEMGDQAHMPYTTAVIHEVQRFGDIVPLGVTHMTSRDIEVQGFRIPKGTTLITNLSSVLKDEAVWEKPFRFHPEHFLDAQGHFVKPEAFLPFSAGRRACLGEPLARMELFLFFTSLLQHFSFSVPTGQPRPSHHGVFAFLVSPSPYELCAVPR

In the case of `CN(Cc1nc2c(N3CCOCC3)nc(-c3ccc(N)cc3)nc2n1C)c1ncc(C(=O)NO)cn1.CS(=O)(=O)O` [PM, 2-(((2-(4-Aminophenyl)-9-methyl-6-(4-morpholinyl)-9H-purine-8-yl)methyl)methylamino)-N-hydroxy-5-pyrimidine-carboxamide Mesylate], the “share of UV absorption peak area in plasma samples” value in series [1] is on record as “more than 35%”. Also, the “body weight / side effects” value in [2] is “no weight loss or other evident side effects”. The compound further returned an IC50 in series [3] of over 10 µM. For the same compound, the “accumulation index for AUC0–∞ (multiple doses/single dose)” value in series [4] (1.2 to 15.0 mg/m^2) is given as 0.97–1.17. For the same compound, the “accumulation index for Cmax (multiple doses/single dose)” value in series [4] (1.2 to 15.0 mg/m^2) was 0.96 to 1.32. The half-life in series [4] (human, plasma, iv, single (Day 1) intravenous, range over doses, read-out: half-life (t1/2)) is 138 to 211 min. For the same compound, in series [5], the “induction of CYP2B6” value is “did not act as an inducer”. In addition, the “bone structure of femur (Micro-CT)” value in [6] was “effectively prevented bone destruction and trabecular changes on the femoral surface”. Further, the “irritation at the injection site” value in series [7] is given as “did not cause irritation at the injection site”. Besides, where the note is “Mouse”, the PAD turned out to be 2.5 mg/kg. Besides, where the note is “beagle, dog”, the “MRSD from MTD, most sensitive species” value stood at 3.33 mg/m². For the same compound, the “equivalent human dose of exposure at dog HNSTD” value (beagle, dog) came out at 36.88 mg/m². The median survival time in series [8] (2.5 mg/kg, solvent control 10.5 days) is recorded as 19.5 days; in series [8] (5 mg/kg), 23 days; in [8] (10 mg/kg) it was 22.5 days. Also, the NOAEL in series [9] is under 3 mg/kg; in series [9] (both sexes), 3 mg/kg; in series [9] (female), 20 mg/kg; in series [9] (male) it was under 3 mg/kg; in [10] (both sexes, beagle, dog, in vivo, intravenous), under 0.3 mg/kg. The “highest no serious toxicity dose (HNSTD)” value in series [10] (both, beagle, dog, in vivo, intravenous) stood at 1 mg/kg. Further, in series [10] (high dose 3 mg/kg, days 13 to 26), the dogs that died was 4/10. For the same compound, in [10] (high dose group, male dogs), the “prolongation of QTc” value is given as 9.6%.
